Source: paper PMC3832545 (PLoS ONE, 2013)

Columns and labels:
[1] = test system: female and male rats; conditions: supra-pharmacological doses, ref [47]; cited from earlier work
Description: However, the in vitro ...

[2] = test system: P-Akt (Ser473); test: Signalling in MC38 cells, Western blot P-Akt; assay type: cell-based, mouse; conditions: covers both Akt (Ser473) and p70S6K (Thr389)
Procedure: MC38 cells (mouse cell line described by Corbett et al. (1975) and generously provided by Dr. Pnina Brodt, McGill University, Montreal, QC) and MCF-7 cells (ATCC, Manassas, VA, USA), were cultivated in DMEM medium containing 4.5 g/l glucose (Wisent Inc., Montreal, QC, Canada) supplemented with 10% (v/v) fetal bovine serum (FBS, Invitrogen) and 20 μg/ml gentamicin (Sandoz Canada, Boucherville, QC, Canada) (i.e., growth medium). Cells used in animal experiments were trypsinized, washed once in PBS and resuspended in PBS (4°C) at a concentration of 5.0 × 10^6 cells/ml and kept on ice until sc injection in the mice. For signalling experiments MC38 cells were cultivated in growth medium for two days until 80-90% confluent, cell cultures were then rinsed once in PBS (room temperature), and starvation medium (similar to growth medium, except it contained only 0.25% (v/v) FBS and no phenol red) was added for 3 h. […] Each signalling experiment comprised two replicate samples per treatment and three independent experiments were performed. […] Data describing IR and IGF-1R expression in various mouse tissues were analysed in a one-way ANOVA followed by pairwise comparisons between tissues using multiple t-test with Bonferroni correction.

[3] = test system: insulin receptor (IR); conditions: cited from earlier work
[4] = cited from earlier work
Description: Further studies are needed to clarify if this effect is also observed during other experimental conditions. However, our in vivo data for ...

Substance | Incidence of mammary carcinoma and pheochromocytoma [1] | Increase of phosphorylation of Akt (Ser473) and p70S6K (Thr389) compared to HI [2] | Increase of binding affinity to the insulin receptor (vs human insulin) ([3]; ref [10], [11]) [fold] | Off-rate from the IR compared to native human insulin ([3]; ref [12]) | Mitogenic potency relative to HI, some cell lines ([4]; ref [10], [13], [46]) [fold] | Mitogenic potential relative to HI in vitro ([4]; ref [14])
IGF-1: recombinant human IGF-1 (Increlex, IPSEN Pharma GmbH) | increased the incidence |  |  |  |  | 
insulin analog B10Asp [X10] |  | 35–90% | 2 | decreased off-rate | 10 | 3–15 fold
